# Measured values from ChEMBL document CHEMBL5724914, “Linking interpersonal differences in gut microbiota composition and drug biotransformation activity” (2024).
# Experiments:
# [1] = (§1) The drug is tested on Z-007 corresponding to rat gut metagenome with ENA study accession number: PRJEB37062 and ENA sample accession number: ERS12561807 for biotransformation under anaerobic condition. The drug concentrations were measured over 9 timepoints collected between 0 and 24 hours of incubation by liquid-chromatography-coupled mass spectrometry (LC–MS); details: 2 µM
# [2] = human gut metagenome, 24 h, 2 µM
# [3] = as §1, with “on WLS-086” for “on Z-007”, “to human” for “to rat”, “number: ERS12561752” for “number: ERS12561807”; details: 2 µM
# [4] = human gut metagenome, 24 h, 2 µM; remark: listed apart in the source
# [5] = as §1, with “on Z-011” for “on Z-007”, “to mouse” for “to rat”, “number: ERS12561811” for “number: ERS12561807”; details: 2 µM
# [6] = human gut metagenome, 24 h, 2 µM; remark: listed apart in the source
# [7] = as §1, with “on WLS-310” for “on Z-007”, “to human” for “to rat”, “number: ERS12561785” for “number: ERS12561807”; details: 2 µM
# [8] = as §1, with “on WLS-090” for “on Z-007”, “to human” for “to rat”, “number: ERS12561753” for “number: ERS12561807”; details: 2 µM
# [9] = as §1, with “on WLS-039” for “on Z-007”, “to human” for “to rat”, “number: ERS12561746” for “number: ERS12561807”; details: 2 µM
# [10] = human gut metagenome, 24 h, 2 µM; remark: listed apart in the source
# [11] = as §1, with “Z-010” for “Z-007”, “to” for “to rat gut”, “ERS12561810” for “ERS12561807”; details: 2 µM
# [12] = as §1, with “Z-029” for “Z-007”, “ERS12561828” for “ERS12561807”; details: 2 µM
# [13] = as §1, with “on Z-003” for “on Z-007”, “to pig” for “to rat”, “number: ERS12561803” for “number: ERS12561807”; details: 2 µM
# [14] = human gut metagenome, 24 h, 2 µM; remark: listed apart in the source
# [15] = human gut metagenome, 24 h, 2 µM; remark: listed apart in the source
# [16] = as §1, with “on WLS-077” for “on Z-007”, “to human” for “to rat”, “number: ERS12561750” for “number: ERS12561807”; details: 2 µM
# [17] = human gut metagenome, 24 h, 2 µM; remark: listed apart in the source
# [18] = as §1, with “Z-019” for “Z-007”, “ERS12561818” for “ERS12561807”; details: 2 µM
# [19] = human gut metagenome, 24 h, 2 µM; remark: listed apart in the source
# [20] = human gut metagenome, 24 h, 2 µM; remark: listed apart in the source
# Note: call rule not given here.
Bacterial Biotransformation [1],Bacterial Biotransformation [2],Bacterial Biotransformation [3],Bacterial Biotransformation [4],Bacterial Biotransformation [5],Bacterial Biotransformation [6],Bacterial Biotransformation [7],Bacterial Biotransformation [8],Bacterial Biotransformation [9],Bacterial Biotransformation [10],Bacterial Biotransformation [11],Bacterial Biotransformation [12],Bacterial Biotransformation [13],Bacterial Biotransformation [14],Bacterial Biotransformation [15],Bacterial Biotransformation [16],Bacterial Biotransformation [17],Bacterial Biotransformation [18],Bacterial Biotransformation [19],Bacterial Biotransformation [20],Compound
Compound NOT metabolized,Compound metabolized,Compound metabolized,Compound NOT metabolized,Compound NOT metabolized,Compound NOT metabolized,Compound NOT metabolized,Compound NOT metabolized,Compound NOT metabolized,Compound NOT metabolized,Compound NOT metabolized,Compound NOT metabolized,Compound NOT metabolized,Compound NOT metabolized,Compound NOT metabolized,Compound NOT metabolized,Compound NOT metabolized,Compound NOT metabolized,Compound NOT metabolized,Compound NOT metabolized,Nc1nc(N)nc(-c2cc(Cl)ccc2Cl)n1.O=C(O)/C=C\C(=O)O [IRSOGLADINE MALEATE]
Compound NOT metabolized,Compound metabolized,Compound metabolized,Compound NOT metabolized,Compound NOT metabolized,Compound metabolized,Compound metabolized,Compound metabolized,Compound NOT metabolized,Compound metabolized,Compound NOT metabolized,Compound NOT metabolized,Compound NOT metabolized,Compound NOT metabolized,Compound NOT metabolized,Compound NOT metabolized,Compound metabolized,Compound NOT metabolized,Compound NOT metabolized,Compound metabolized,CN1CCC(=C2c3ccccc3CC(=O)c3sccc32)CC1.O=C(O)/C=C/C(=O)O [KETOTIFEN FUMARATE]
Compound NOT metabolized,Compound metabolized,Compound metabolized,Compound NOT metabolized,Compound NOT metabolized,Compound metabolized,Compound metabolized,Compound metabolized,Compound metabolized,Compound metabolized,Compound NOT metabolized,Compound NOT metabolized,Compound NOT metabolized,Compound metabolized,Compound NOT metabolized,Compound NOT metabolized,Compound metabolized,Compound NOT metabolized,Compound NOT metabolized,Compound metabolized,CC[C@H](C)C(=O)O[C@H]1CCC=C2C=C[C@H](C)[C@H](CC[C@@H]3C[C@@H](O)CC(=O)O3)[C@H]21 [MEVASTATIN]
Compound NOT metabolized,Compound metabolized,Compound metabolized,Compound NOT metabolized,Compound NOT metabolized,Compound metabolized,Compound metabolized,Compound metabolized,Compound metabolized,Compound metabolized,Compound NOT metabolized,Compound NOT metabolized,Compound NOT metabolized,Compound metabolized,Compound metabolized,Compound NOT metabolized,Compound metabolized,Compound NOT metabolized,Compound metabolized,Compound NOT metabolized,COc1ccc2cc([C@H](C)C(=O)O)ccc2c1 [NAPROXEN]
Compound NOT metabolized,Compound metabolized,Compound metabolized,Compound metabolized,Compound NOT metabolized,Compound metabolized,Compound metabolized,Compound metabolized,Compound metabolized,Compound metabolized,Compound NOT metabolized,Compound metabolized,Compound NOT metabolized,Compound NOT metabolized,Compound NOT metabolized,Compound metabolized,Compound NOT metabolized,Compound NOT metabolized,Compound metabolized,Compound metabolized,C#C[C@]1(OC(C)=O)CC[C@H]2[C@@H]3CCC4=C/C(=N/O)CC[C@@H]4[C@H]3CC[C@@]21CC [NORGESTIMATE]
Compound NOT metabolized,Compound metabolized,Compound metabolized,Compound metabolized,Compound metabolized,Compound metabolized,Compound metabolized,Compound metabolized,Compound metabolized,Compound metabolized,Compound metabolized,Compound metabolized,Compound NOT metabolized,Compound metabolized,Compound NOT metabolized,Compound metabolized,Compound metabolized,Compound metabolized,Compound metabolized,Compound metabolized,COc1ccnc(C[S+]([O-])c2nc3ccc(OC(F)F)cc3[nH]2)c1OC (stereo not given) [PANTOPRAZOLE]
Compound NOT metabolized,Compound metabolized,Compound NOT metabolized,Compound NOT metabolized,Compound NOT metabolized,Compound metabolized,Compound metabolized,Compound metabolized,Compound NOT metabolized,Compound metabolized,Compound NOT metabolized,Compound NOT metabolized,Compound NOT metabolized,Compound NOT metabolized,Compound NOT metabolized,Compound NOT metabolized,Compound NOT metabolized,Compound NOT metabolized,Compound NOT metabolized,Compound metabolized,CN(CCOc1ccc(CC2SC(=O)NC2=O)cc1)c1ccccn1.O=C(O)/C=C\C(=O)O (stereo not given) [ROSIGLITAZONE MALEATE]
Compound NOT metabolized,Compound metabolized,Compound metabolized,Compound NOT metabolized,Compound NOT metabolized,Compound metabolized,Compound metabolized,Compound metabolized,Compound metabolized,Compound metabolized,Compound NOT metabolized,Compound NOT metabolized,Compound NOT metabolized,Compound NOT metabolized,Compound NOT metabolized,Compound metabolized,Compound metabolized,Compound NOT metabolized,Compound NOT metabolized,Compound NOT metabolized,CC(C)c1nc(N(C)S(C)(=O)=O)nc(-c2ccc(F)cc2)c1/C=C/[C@@H](O)C[C@@H](O)CC(=O)[O-].CC(C)c1nc(N(C)S(C)(=O)=O)nc(-c2ccc(F)cc2)c1/C=C/[C@@H](O)C[C@@H](O)CC(=O)[O-].[Ca+2] [ROSUVASTATIN CALCIUM]
